Experiments:
TRAP-activated platelets = assay: Inhibition of TRAP-induced platelet aggregation after pre-incubation with peptide; type: cell-based, human (healthy volunteers); details: for Aggregation after TRAP activation, donor h: replicate donor h; for Aggregation after TRAP activation, donor i: replicate donor i; for Aggregation after TRAP activation, donor j: replicate donor j
Method: (§1) Blood was drawn from healthy volunteers into a syringe containing a final volume of 15% Acid Citrate Dextrose (ACD). The blood/ACD mixture was then aliquoted into 15 ml Cellstar tubes, at volumes of 5ml per tube, and centrifuged at 150 rcf for 10 minutes to obtain platelet rich plasma (PRP). PRP was then transferred to a 50ml tube using a pipette. The pH was then adjusted to 6.5. Prostaglandin (PGE1) was then added with a final concentration of 1μM. The PRP was then centrifuged at 750 rcf. After centrifugation the platelet poor plasma (PPP) was discarded and the pellet was resuspended in buffer A (6 mM dextrose, 130 mM NaCl, 9 mM NaHCO3, 10 mM sodium citrate, 10 mM Tris base, 3 mM KCl, 0.81 mM KH2PO4 and 0.9 mM MgCl26H2O, pH 7.4). A platelet concentration of 3x10^5/μl or 1x10^6/μl was obtained by dilution depending on the experiment in which they were used. Platelets were left to rest for 45 minutes and supplemented with 1.8mM calcium chloride prior to use.
(§2) A platelet concentration of 3x10^5 /μl was used when performing standard aggregations and a concentration of 1x10^6 /μl was used for sample preparation for western blot analysis. The extent of platelet aggregation was measured by quantifying the optical density of the samples using the Bio-Data PAP-8 aggregometer (platelet aggregation profiler, Horsham, PA, USA). A temperature of 37°C was maintained and samples were stirred using magnets spinning at 1100 rpm. 200 μl of washed platelets was added to each aggregation tube. Different volumes of buffer, peptide and TRAP were added to achieve the desired concentrations. Peptide/buffer was added to each well after two minutes. TRAP, with a final concentration depending on the experiment, was added 6 minutes later and data was collected for an additional 7 minutes.

resting platelets = assay: Platelet aggregation induced by peptide in resting washed platelets (activation); type: cell-based, human (healthy volunteers); details: for Activation, 5μM / Activation, 20μM: S3 Table, n=3; for Activation, 5μM: peptide 5 μM; for Activation, 5μM / Activation, 20μM / Activation: unit assumed; for Activation, 20μM: peptide 20 μM; for Activation: platelet aggregation in resting platelets after 6 minutes incubation with peptide, pal-peptides 20 μM, tat-peptides 50 μM, optical density, aggregometer, mean, n>=3; for Aggregation before TRAP activation, donor h: replicate donor h; for Aggregation before TRAP activation, donor i: replicate donor i; for Aggregation before TRAP activation, donor j: replicate donor j
Method: as §1, §2

[1] = S3 Table, peptide 5 μM, aggregation after TRAP, n=3
[2] = S3 Table, peptide 20 μM, aggregation after TRAP, n=3
[3] = platelet aggregation induced by 4 μM TRAP in platelets pre-incubated with peptide (low value = inhibition), pal-peptides 20 μM, tat-peptides 50 μM, mean, n>=3
[4] = TRAP 4 μM, pal 20 μM, tat 50 μM

| Substance | Platelet aggregation remaining after TRAP (low = inhibition) (TRAP-activated platelets; [1]) | Platelet aggregation remaining after TRAP (low = inhibition) (TRAP-activated platelets; [2]) | Activation, 5μM (resting platelets) | Activation, 20μM (resting platelets) | Platelet aggregation remaining after TRAP (low = inhibition) (TRAP-activated platelets; [3]) | Aggregation after TRAP activation, donor h (TRAP-activated platelets; [4]) | Aggregation after TRAP activation, donor i (TRAP-activated platelets; [4]) | Aggregation after TRAP activation, donor j (TRAP-activated platelets; [4]) | Activation (resting platelets) | Aggregation before TRAP activation, donor h (resting platelets; pal 20 μM, tat 50 μM) | Aggregation before TRAP activation, donor i (resting platelets; pal 20 μM, tat 50 μM) | Aggregation before TRAP activation, donor j (resting platelets; pal 20 μM, tat 50 μM) | further results |
| --- | --- | --- | --- | --- | --- | --- | --- | --- | --- | --- | --- | --- | --- |
| pal-KVGFFKR-FAKFEEERAR [B15p ITGA2b-JM U ITGB3-middle1, palmitylated chimeric peptide] | 72 | 71 | 2% | 4% | – | – | – | – | – | – | – | – | – |
| tat-SKPIGPDDAIDALSSDFTS-(NH2) [tat-CAST_2, tat peptide from calpastatin (CAST)] | – | – | – | – | 74 | 78 | 69 | 76 | 3% | 3 | 4 | 4 | – |
| GIESMSQDTEVRSRVVGGS-tat [PTPN1-tat, PTPN1 peptide with C-terminal tat] | – | – | – | – | 77 | – | – | – | 3% | – | – | – | Aggregation after TRAP activation, donor a (TRAP-activated platelets; replicate donor a, TRAP 4 μM, pal 20 μM, tat 50 μM): 73; Aggregation after TRAP activation, donor b (TRAP-activated platelets; replicate donor b, TRAP 4 μM, pal 20 μM, tat 50 μM): 76; Aggregation after TRAP activation, donor c (TRAP-activated platelets; replicate donor c, TRAP 4 μM, pal 20 μM, tat 50 μM): 83; Aggregation after TRAP activation, donor d (TRAP-activated platelets; replicate donor d, TRAP 4 μM, pal 20 μM, tat 50 μM): 75; Aggregation after TRAP activation, donor e (TRAP-activated platelets; replicate donor e, TRAP 4 μM, pal 20 μM, tat 50 μM): 79; Aggregation before TRAP activation, donor a (resting platelets; replicate donor a, pal 20 μM, tat 50 μM): 3; Aggregation before TRAP activation, donor b (resting platelets; replicate donor b, pal 20 μM, tat 50 μM): 4; Aggregation before TRAP activation, donor c (resting platelets; replicate donor c, pal 20 μM, tat 50 μM): 5; Aggregation before TRAP activation, donor d (resting platelets; replicate donor d, pal 20 μM, tat 50 μM): 4; Aggregation before TRAP activation, donor e (resting platelets; replicate donor e, pal 20 μM, tat 50 μM): 3 |
| pal-KVGAAKR-TLELDRLMASLS [B21p ITGA2b-JM2 U TGFB1I1-LD, palmitylated chimeric peptide] | 70 | 28 | 2% | 1% | – | – | – | – | – | – | – | – | – |
| pal-KVGAAKR-LGKKPIYKK [B19p ITGA2b-JM2 U SDC4-middle, palmitylated chimeric peptide] | 66 | 6 | 2% | 3% | – | – | – | – | – | – | – | – | – |
| tat-KRAPQMDWSKKNELFSNL [tat-NHERF1, tat peptide from NHERF1] | – | – | – | – | 70 | 71 | 66 | 75 | 3% | 4 | 3 | 3 | – |
| tat-EGERALPSIPKLAN-(NH2) [tat-FAK_1, tat peptide from PTK2/FAK1] | – | – | – | – | 72 | 76 | 66 | 74 | 4% | 4 | 4 | 4 | – |
| pal-KVGAAKR-WEQLLTTIARTINEVENQI [B13p ITGA2b-JM2 U ACTN1-VBS, palmitylated chimeric peptide] | 75 | 63 | 3% | 12% | – | – | – | – | – | – | – | – | – |
| pal-KVGFFKR-WEQLLTTIARTINEVENQI [B12p ITGA2b-JM U ACTN1-VBS, palmitylated chimeric peptide] | 74 | 66 | 1% | 7% | – | – | – | – | – | – | – | – | – |

Reference: paper PMC6349357, “Computational and experimental analysis of bioactive peptide linear motifs in the integrin adhesome” (PLoS ONE, 2019)
